Values after ≈ are worked out from the molar mass of the structure shown. Where two headings read alike, the source gives them in different places.
Key:
E. coli ATCC 25922 = assay: IHMA QC MIC; assay type: cell-based; details: Escherichia coli, ATCC25922; read-out: MIC (QC, repeated tests)
[1] = tested on: 100 A. baumannii strains (50 MDR, 50 non-MDR); assay: MIC broth microdilution at IHMA Europe, panel of 100 strains; assay type: cell-based; details: Acinetobacter baumannii, read-out: MIC

- MIC (E. coli ATCC 25922): 0.12 µg/mL (≈ 0.205 µM)
- MIC ([1]; A. baumannii IHMA 1769393, Lithuania 2018, Non-MDR): 0.25 µg/mL (≈ 0.427 µM)
- MIC ([1]; A. baumannii IHMA 1769782, Israel 2018, MDR): 4 µg/mL (≈ 6.83 µM)
- MIC ([1]; A. baumannii IHMA 1769910, Israel 2018, Non-MDR): 2 µg/mL (≈ 3.41 µM)
- MIC ([1]; A. baumannii IHMA 1790317, Czech Republic 2018, Non-MDR): 0.06 µg/mL (≈ 0.102 µM)
- MIC ([1]; A. baumannii IHMA 1790916, Romania 2018, Non-MDR): 0.12 µg/mL (≈ 0.205 µM)
- MIC ([1]; A. baumannii IHMA 1791877, Israel 2018, MDR): 2 µg/mL (≈ 3.41 µM)
- MIC ([1]; A. baumannii IHMA 1792961, Jordan 2018, MDR): 2 µg/mL (≈ 3.41 µM)
- MIC ([1]; A. baumannii IHMA 1795669, Tunisia 2018, Non-MDR): 0.06 µg/mL (≈ 0.102 µM)
- MIC ([1]; A. baumannii IHMA 1814276, Lebanon 2018, MDR): 4 µg/mL (≈ 6.83 µM)
- MIC ([1]; A. baumannii IHMA 1815198, Kuwait 2018, MDR): 4 µg/mL (≈ 6.83 µM)
- MIC ([1]; A. baumannii IHMA 1815856, Israel 2018, MDR): 2 µg/mL (≈ 3.41 µM)
- MIC ([1]; A. baumannii IHMA 1821468, South Africa 2018, Non-MDR): 0.25 µg/mL (≈ 0.427 µM)
- MIC ([1]; A. baumannii IHMA 1829500, Georgia 2018, Non-MDR): 0.5 µg/mL (≈ 0.854 µM)
- MIC ([1]; A. baumannii IHMA 1830924, United Kingdom 2018, Non-MDR): 0.5 µg/mL (≈ 0.854 µM)
- MIC ([1]; A. baumannii IHMA 1849819, Kuwait 2018, MDR): 4 µg/mL (≈ 6.83 µM)
- MIC ([1]; A. baumannii IHMA 1849829, Kuwait 2018, Non-MDR): 0.25 µg/mL (≈ 0.427 µM)
- MIC ([1]; A. baumannii IHMA 1857118, Slovenia 2018, Non-MDR): 0.25 µg/mL (≈ 0.427 µM)
- MIC ([1]; A. baumannii IHMA 1863631, France 2018, Non-MDR): 0.25 µg/mL (≈ 0.427 µM)
- MIC ([1]; A. baumannii IHMA 1870054, United States 2018, Non-MDR): 0.12 µg/mL (≈ 0.205 µM)
- MIC ([1]; A. baumannii IHMA 1884428, Italy 2018, Non-MDR): 0.25 µg/mL (≈ 0.427 µM)
- MIC ([1]; A. baumannii IHMA 1884990, Germany 2018, Non-MDR): 0.12 µg/mL (≈ 0.205 µM)
- MIC ([1]; A. baumannii IHMA 1900538, Turkey 2018, Non-MDR): 0.25 µg/mL (≈ 0.427 µM)
- MIC ([1]; A. baumannii IHMA 1913773, Kenya 2018, Non-MDR): 0.25 µg/mL (≈ 0.427 µM)
- MIC ([1]; A. baumannii IHMA 1926285, Qatar 2018, Non-MDR): 0.12 µg/mL (≈ 0.205 µM)
- MIC ([1]; A. baumannii IHMA 1926288, Qatar 2018, MDR): 4 µg/mL (≈ 6.83 µM)
- MIC ([1]; A. baumannii IHMA 1957343, Portugal 2019, Non-MDR): 0.12 µg/mL (≈ 0.205 µM)
- MIC ([1]; A. baumannii IHMA 1963732, Turkey 2019, MDR): 4 µg/mL (≈ 6.83 µM)
- MIC ([1]; A. baumannii IHMA 1967860, Spain 2019, Non-MDR): 4 µg/mL (≈ 6.83 µM)
- MIC ([1]; A. baumannii IHMA 1971673, Latvia 2019, MDR): 2 µg/mL (≈ 3.41 µM)
- MIC ([1]; A. baumannii IHMA 1975075, Israel 2019, Non-MDR): 0.5 µg/mL (≈ 0.854 µM)
- MIC ([1]; A. baumannii IHMA 1977077, Kuwait 2019, Non-MDR): 0.5 µg/mL (≈ 0.854 µM)
- MIC ([1]; A. baumannii IHMA 1983151, Greece 2019, MDR): 2 µg/mL (≈ 3.41 µM)
- MIC ([1]; A. baumannii IHMA 1984665, Lithuania 2019, MDR): 4 µg/mL (≈ 6.83 µM)
- MIC ([1]; A. baumannii IHMA 1986678, Turkey 2019, Non-MDR): 0.5 µg/mL (≈ 0.854 µM)
- MIC ([1]; A. baumannii IHMA 1986738, Turkey 2019, MDR): 4 µg/mL (≈ 6.83 µM)
- MIC ([1]; A. baumannii IHMA 1987162, Croatia 2019, MDR): 2 µg/mL (≈ 3.41 µM)
- MIC ([1]; A. baumannii IHMA 1993615, Turkey 2019, MDR): 0.5 µg/mL (≈ 0.854 µM)
- MIC ([1]; A. baumannii IHMA 1994284, Italy 2019, MDR): 1 µg/mL (≈ 1.71 µM)
- MIC ([1]; A. baumannii IHMA 1995161, Czech Republic 2019, Non-MDR): 0.12 µg/mL (≈ 0.205 µM)
- MIC ([1]; A. baumannii IHMA 1997936, Morocco 2019, Non-MDR): 0.25 µg/mL (≈ 0.427 µM)
- MIC ([1]; A. baumannii IHMA 1999178, Belgium 2019, Non-MDR): 0.25 µg/mL (≈ 0.427 µM)
- MIC ([1]; A. baumannii IHMA 2003279, Turkey 2019, MDR): 2 µg/mL (≈ 3.41 µM)
- MIC ([1]; A. baumannii IHMA 2014367, Jordan 2019, Non-MDR): 0.12 µg/mL (≈ 0.205 µM)
- MIC ([1]; A. baumannii IHMA 2014931, South Africa 2019, Non-MDR): 0.25 µg/mL (≈ 0.427 µM)
- MIC ([1]; A. baumannii IHMA 2019315, Romania 2019, Non-MDR): 0.12 µg/mL (≈ 0.205 µM)
- MIC ([1]; A. baumannii IHMA 2020360, Croatia 2019, MDR): 4 µg/mL (≈ 6.83 µM)
- MIC ([1]; A. baumannii IHMA 2031511, Greece 2019, Non-MDR): 0.12 µg/mL (≈ 0.205 µM)
- MIC ([1]; A. baumannii IHMA 2031524, Greece 2019, MDR): 1 µg/mL (≈ 1.71 µM)
- MIC ([1]; A. baumannii IHMA 2034657, Tunisia 2019, Non-MDR): 0.25 µg/mL (≈ 0.427 µM)
- MIC ([1]; A. baumannii IHMA 2035089, Serbia 2019, MDR): 4 µg/mL (≈ 6.83 µM)
- MIC ([1]; A. baumannii IHMA 2035134, Serbia 2019, Non-MDR): 0.12 µg/mL (≈ 0.205 µM)
- MIC ([1]; A. baumannii IHMA 2038976, Hungary 2019, MDR): 2 µg/mL (≈ 3.41 µM)
- MIC ([1]; A. baumannii IHMA 2051503, Serbia 2019, MDR): 2 µg/mL (≈ 3.41 µM)
- MIC ([1]; A. baumannii IHMA 2058329, Slovenia 2019, Non-MDR): 0.25 µg/mL (≈ 0.427 µM)
- MIC ([1]; A. baumannii IHMA 2065587, France 2019, Non-MDR): 0.25 µg/mL (≈ 0.427 µM)
- MIC ([1]; A. baumannii IHMA 2099294, United Kingdom 2019, Non-MDR): 0.5 µg/mL (≈ 0.854 µM)
- MIC ([1]; A. baumannii IHMA 2129256, Qatar 2019, Non-MDR): 0.12 µg/mL (≈ 0.205 µM)
- MIC ([1]; A. baumannii IHMA 2154584, Israel 2020, MDR): 2 µg/mL (≈ 3.41 µM)
- MIC ([1]; A. baumannii IHMA 2155340, Kenya 2020, MDR): 4 µg/mL (≈ 6.83 µM)
SMILES: CN(C)c1cc(NC(=O)CNC(C)(C)C)c(O)c2c1C[C@H]1C[C@H]3[C@H](N(C)C)C(O)=C(C(N)=O)C(=O)[C@@]3(O)C(O)=C1C2=O [Tigecycline, tigecycline]

From PMC10041525, “New Dual Inhibitors of Bacterial Topoisomerases with Broad-Spectrum Antibacterial Activity and In Vivo Efficacy against Vancomycin-Intermediate Staphylococcus aureus” (Journal of Medicinal Chemistry, 2023)
